Source: the supplement of paper PMC10307832

How the values were obtained:
Assay in all cases: relative viability (nuclei count vs DMSO), 5 days (fraction); higher = more cells survive
ChaGo-K-1 = tested on: ChaGo-K-1
Outline: (§1)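 Relative viability divides the nuclei count in treated wells by that in vehicle wells. Lung cancer cell lines were seeded in 1536-well plates, dosed by pin tool the next day, and fixed and stained after 5 days in one step with final 0.05% Triton X-100, 1% formaldehyde and 1 ug/ml Hoechst. Dosing was a single drug or a fixed anchor-drug dose plus five library-drug doses (not always all listed) in √10 steps, and values are medians of duplicate plates imaged at 4×.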

EKVX = tested on: EKVX
Outline: as §1

EMC-BAC-2 = tested on: EMC-BAC-2
Outline: as §1

EPLC-272H = tested on: EPLC-272H
Outline: as §1

H3255 = tested on: H3255
Outline: as §1

HCC-15 = tested on: HCC-15
Outline: as §1

HCC-827 = tested on: HCC-827
Outline: as §1

LC-2-ad = tested on: LC-2-ad
Outline: as §1

LCLC-97TM1 = tested on: LCLC-97TM1
Outline: as §1

NCI-H1792 = tested on: NCI-H1792
Outline: as §1

NCI-H1793 = tested on: NCI-H1793
Outline: as §1

NCI-H1915 = tested on: NCI-H1915
Outline: as §1

NCI-H1944 = tested on: NCI-H1944
Outline: as §1

NCI-H1993 = tested on: NCI-H1993
Outline: as §1

NCI-H23 = tested on: NCI-H23
Outline: as §1

NCI-H322M = tested on: NCI-H322M
Outline: as §1

NCI-H460 = tested on: NCI-H460
Outline: as §1

NCI-H661 = tested on: NCI-H661
Outline: as §1

PC-14 = tested on: PC-14
Outline: as §1

SK-LU-1 = tested on: SK-LU-1
Outline: as §1

Molecule `COCC1(CO)C(=O)C2CCN1CC2` (centres undefined) [PRIMA-1MET] + CS(=O)(=O)N1CCN(Cc2cc3nc(-c4cccc5[nH]ncc45)nc(N4CCOCC4)c3s2)CC1 [Pictilisib] (partner 1 µM) has a relative viability (ChaGo-K-1; first compound 0.2 µM) of 0.732, a relative viability (ChaGo-K-1; first compound 0.6325 µM) of 0.468 and a relative viability (ChaGo-K-1; first compound 2 µM) of 0.84. The relative viability (ChaGo-K-1; first compound 6.325 µM) was 0.752, the relative viability (ChaGo-K-1; first compound 20 µM) was 0.328 and the relative viability (EKVX; first compound 0.2 µM) was 0.475. It also gave a relative viability (EKVX; first compound 0.6325 µM) of 0.458, a relative viability (EKVX; first compound 2 µM) of 0.328 and a relative viability (EKVX; first compound 6.325 µM) of 0.489. It also gave a relative viability (EKVX; first compound 20 µM) of 0.356, a relative viability (EMC-BAC-2; first compound 0.2 µM) of 0.608 and a relative viability (EMC-BAC-2; first compound 0.6325 µM) of 0.503. It also gave a relative viability (EMC-BAC-2; first compound 2 µM) of 0.343, a relative viability (EMC-BAC-2; first compound 6.325 µM) of 0.566 and a relative viability (EMC-BAC-2; first compound 20 µM) of 0.583. For the same molecule, the relative viability (EPLC-272H; first compound 0.2 µM) was 0.295, the relative viability (EPLC-272H; first compound 0.6325 µM) was 0.251 and the relative viability (EPLC-272H; first compound 2 µM) was 0.234. For the same molecule, the relative viability (EPLC-272H; first compound 6.325 µM) was 0.305, the relative viability (EPLC-272H; first compound 20 µM) was 0.124 and the relative viability (H3255; first compound 0.2 µM) was 0.493. It also gave a relative viability (H3255; first compound 0.6325 µM) of 0.437, a relative viability (H3255; first compound 2 µM) of 0.466 and a relative viability (H3255; first compound 6.325 µM) of 0.469. The relative viability (H3255; first compound 20 µM) was 0.406, the relative viability (HCC-15; first compound 0.2 µM) was 0.511 and the relative viability (HCC-15; first compound 0.6325 µM) was 0.582. The relative viability (HCC-15; first compound 2 µM) was 0.568, the relative viability (HCC-15; first compound 6.325 µM) was 0.638 and the relative viability (HCC-15; first compound 20 µM) was 0.618. It also gave a relative viability (HCC-827; first compound 0.2 µM) of 1.33, a relative viability (HCC-827; first compound 0.6325 µM) of 0.907 and a relative viability (HCC-827; first compound 2 µM) of 0.863. It also gave a relative viability (HCC-827; first compound 6.325 µM) of 1.08, a relative viability (HCC-827; first compound 20 µM) of 0.81 and a relative viability (LC-2-ad; first compound 0.2 µM) of 0.933. The relative viability (LC-2-ad; first compound 0.6325 µM) was 0.445, the relative viability (LC-2-ad; first compound 2 µM) was 0.321 and the relative viability (LC-2-ad; first compound 6.325 µM) was 0.468. It also gave a relative viability (LC-2-ad; first compound 20 µM) of 0.421, a relative viability (LCLC-97TM1; first compound 0.2 µM) of 0.127 and a relative viability (LCLC-97TM1; first compound 2 µM) of 0.234. For the same molecule, the relative viability (LCLC-97TM1; first compound 6.325 µM) was 0.135, the relative viability (LCLC-97TM1; first compound 20 µM) was 0.117 and the relative viability (NCI-H1792; first compound 0.2 µM) was 0.227. It also gave a relative viability (NCI-H1792; first compound 0.6325 µM) of 0.223, a relative viability (NCI-H1792; first compound 2 µM) of 0.222 and a relative viability (NCI-H1792; first compound 6.325 µM) of 0.327. The relative viability (NCI-H1792; first compound 20 µM) was 0.271, the relative viability (NCI-H1793; first compound 0.2 µM) was 0.372 and the relative viability (NCI-H1793; first compound 0.6325 µM) was 0.251. The relative viability (NCI-H1793; first compound 6.325 µM) was 0.343, the relative viability (NCI-H1793; first compound 20 µM) was 0.325 and the relative viability (NCI-H1915; first compound 0.2 µM) was 0.712. The relative viability (NCI-H1915; first compound 0.6325 µM) was 0.785, the relative viability (NCI-H1915; first compound 2 µM) was 0.625 and the relative viability (NCI-H1915; first compound 6.325 µM) was 0.705. The relative viability (NCI-H1915; first compound 20 µM) was 0.932, the relative viability (NCI-H1944; first compound 0.2 µM) was 0.332 and the relative viability (NCI-H1944; first compound 0.6325 µM) was 0.324. For the same molecule, the relative viability (NCI-H1944; first compound 6.325 µM) was 0.328, the relative viability (NCI-H1944; first compound 20 µM) was 0.363 and the relative viability (NCI-H1993; first compound 0.2 µM) was 0.949. It also gave a relative viability (NCI-H1993; first compound 0.6325 µM) of 0.797, a relative viability (NCI-H1993; first compound 2 µM) of 0.732 and a relative viability (NCI-H1993; first compound 6.325 µM) of 0.873. For the same molecule, the relative viability (NCI-H1993; first compound 20 µM) was 0.854, the relative viability (NCI-H23; first compound 0.2 µM) was 0.361 and the relative viability (NCI-H23; first compound 0.6325 µM) was 0.403. The relative viability (NCI-H23; first compound 2 µM) was 0.323, the relative viability (NCI-H23; first compound 6.325 µM) was 0.334 and the relative viability (NCI-H23; first compound 20 µM) was 0.138. The relative viability (NCI-H322M; first compound 0.2 µM) was 0.543, the relative viability (NCI-H322M; first compound 6.325 µM) was 0.492 and the relative viability (NCI-H322M; first compound 20 µM) was 0.451. It also gave a relative viability (NCI-H460; first compound 0.2 µM) of 0.31, a relative viability (NCI-H460; first compound 0.6325 µM) of 0.359 and a relative viability (NCI-H460; first compound 2 µM) of 0.23. The relative viability (NCI-H460; first compound 6.325 µM) was 0.357, the relative viability (NCI-H460; first compound 20 µM) was 0.197 and the relative viability (NCI-H661; first compound 0.2 µM) was 0.396. It also gave a relative viability (NCI-H661; first compound 0.6325 µM) of 0.238, a relative viability (NCI-H661; first compound 6.325 µM) of 0.447 and a relative viability (NCI-H661; first compound 20 µM) of 0.262. The relative viability (PC-14; first compound 0.2 µM) was 0.813, the relative viability (PC-14; first compound 0.6325 µM) was 0.724 and the relative viability (PC-14; first compound 2 µM) was 0.692. It also gave a relative viability (PC-14; first compound 6.325 µM) of 0.797, a relative viability (PC-14; first compound 20 µM) of 0.401 and a relative viability (SK-LU-1; first compound 0.2 µM) of 0.592. It also gave a relative viability (SK-LU-1; first compound 0.6325 µM) of 0.549, a relative viability (SK-LU-1; first compound 2 µM) of 0.357 and a relative viability (SK-LU-1; first compound 6.325 µM) of 0.697. The relative viability (SK-LU-1; first compound 20 µM) was 0.142.
